Data published in patent US20120270237A9, “METHODS FOR THE IDENTIFICATION OF KINASE INTERACTING MOLECULES AND FOR THE PURIFICATION OF KINASE PROTEINS” (Cellzone AG, priority 2009, published 2012).

Experiments:
[1] = molecular target: T1, AMPKa2 (Homo sapiens, UniProt P54646); assay: Kinobeads competition binding, HeLa Placenta lysate mix; conditions: 10 μM free compound
T1 construct: capturing and identification of kinases from mixed HeLa placenta lysates; endogenous in cells; host or cells: mixed lysate of HeLa cells and placenta tissue
Protocol: (§1) To one aliquot of cell lysate 10 μM of the free compound (FIG. 3, CZC31326) was added and allowed to bind to proteins in the lysate. Then the affinity matrix with the immobilized compound was added to capture proteins that were not interacting with the previously added free compound. Beads were separated from the lysate and bead bound proteins were eluted in SDS sample buffer and subsequently separated by SDS-Polyacrylamide gel electrophoresis (FIG. 10). Suitable gel bands were cut out and subjected to in-gel proteolytic digestion with trypsin. The second lysate aliquot was processed identically, however no free compound was added (DMSO solvent control). Peptides originating from samples 1 and 2 were labeled with iTRAQ reagents (iTRAQ 114 and iTRAQ 117) and the combined samples were analyzed with a nano-flow liquid chromatography system coupled online to a tandem mass spectrometer (LC-MS/MS) experiment followed by iTRAQ reporter ion quantification in the MS/MS spectra as described in Example 2.

[2] = molecular target: T2, CaMKK1 (Homo sapiens, UniProt Q8N5S9); assay: as above; conditions: 10 μM free compound
T2 construct: capturing and identification of kinases from mixed HeLa placenta lysates; endogenous in cells; host or cells: mixed lysate of HeLa cells and placenta tissue
Protocol: as §1

[3] = molecular target: T3, FAK (Homo sapiens, UniProt Q05397); assay: as above; conditions: 10 μM free compound
T3 construct: capturing and identification of kinases from mixed HeLa placenta lysates; endogenous in cells; host or cells: mixed lysate of HeLa cells and placenta tissue
Protocol: as §1

[4] = molecular target: T4, FLT4 (Homo sapiens, UniProt P35916); assay: as above; conditions: 10 μM free compound
T4 construct: capturing and identification of kinases from mixed HeLa placenta lysates; endogenous in cells; host or cells: mixed lysate of HeLa cells and placenta tissue
Protocol: as §1

[5] = molecular target: T5, KDR (Homo sapiens, UniProt P35968); assay: as above; conditions: 10 μM free compound
T5 construct: capturing and identification of kinases from mixed HeLa placenta lysates; endogenous in cells; host or cells: mixed lysate of HeLa cells and placenta tissue
Protocol: as §1

[6] = molecular target: T6, MAP3K6 (Homo sapiens, UniProt O95382); assay: as above; conditions: 10 μM free compound
T6 construct: capturing and identification of kinases from mixed HeLa placenta lysates; endogenous in cells; host or cells: mixed lysate of HeLa cells and placenta tissue
Protocol: as §1

[7] = molecular target: T7, MAP3K7 (Homo sapiens, UniProt O43318); assay: as above; conditions: 10 μM free compound
T7 construct: capturing and identification of kinases from mixed HeLa placenta lysates; endogenous in cells; host or cells: mixed lysate of HeLa cells and placenta tissue
Protocol: as §1

[8] = molecular target: T8, MRCKa (Homo sapiens, UniProt Q5VT25); assay: as above; conditions: 10 μM free compound
T8 construct: capturing and identification of kinases from mixed HeLa placenta lysates; endogenous in cells; host or cells: mixed lysate of HeLa cells and placenta tissue
Protocol: as §1

[9] = molecular target: T9, MRCKb (Homo sapiens, UniProt Q9Y5S2); assay: as above; conditions: 10 μM free compound
T9 construct: capturing and identification of kinases from mixed HeLa placenta lysates; endogenous in cells; host or cells: mixed lysate of HeLa cells and placenta tissue
Protocol: as §1

[10] = molecular target: T10, PKG1 (Homo sapiens, UniProt Q13976); assay: as above; conditions: 10 μM free compound
T10 construct: capturing and identification of kinases from mixed HeLa placenta lysates; endogenous in cells; host or cells: mixed lysate of HeLa cells and placenta tissue
Protocol: as §1

[11] = molecular target: T11, SRC (Homo sapiens, UniProt P12931); assay: as above; conditions: 10 μM free compound
T11 construct: capturing and identification of kinases from mixed HeLa placenta lysates; endogenous in cells; host or cells: mixed lysate of HeLa cells and placenta tissue
Protocol: as §1

[12] = molecular target: T12, TIE2 (Homo sapiens, UniProt Q02763); assay: as above; conditions: 10 μM free compound
T12 construct: capturing and identification of kinases from mixed HeLa placenta lysates; endogenous in cells; host or cells: mixed lysate of HeLa cells and placenta tissue
Protocol: as §1

[13] = molecular target: T13, TNK1 (Homo sapiens, UniProt Q13470); assay: as above; conditions: 10 μM free compound
T13 construct: capturing and identification of kinases from mixed HeLa placenta lysates; endogenous in cells; host or cells: mixed lysate of HeLa cells and placenta tissue
Protocol: as §1

[14] = molecular target: JAK2 (Homo sapiens, UniProt O60674); assay: Kinobeads competition binding, L-363 cell lysate; set-up: Identified kinases with CZC31326 from L-363 cell lysate; endogenous in cells; host or cells: L-363 (MG132-treated); conditions: 10 μM free compound, L-363 lysate
Protocol: as §1, with “8).” for “10).”
For this experiment the human plasma cell leukaemia line L-363 was used (German Collection of Microorganisms and Cell Cultures, DSMZ number ACC49, Braunschweig, Germany). Cells were treated for three hours with 20 μM of the proteasome inhibitor MG132 (Z-Leu-Leu-Leu-al, Sigma C2211) prior to cell harvesting.

[15] = molecular target: MLK4 (Homo sapiens, UniProt Q5TCX8); assay: Kinobeads competition binding, HeLa Placenta lysate mix; set-up: capturing and identification of kinases from mixed HeLa placenta lysates; endogenous in cells; host or cells: HeLa cells mixed with placenta tissue lysate; conditions: 10 μM free compound
Protocol: as §1

[16] = molecular target: PKN2 (Homo sapiens, UniProt Q16513); assay: as above; set-up: capturing and identification of kinases from mixed HeLa placenta lysates; endogenous in cells; host or cells: HeLa cells mixed with placenta tissue lysate; conditions: 10 μM free compound
Protocol: as §1

[17] = molecular target: PLK1 (Homo sapiens, UniProt P53350); assay: as above; set-up: capturing and identification of kinases from mixed HeLa placenta lysates; endogenous in cells; host or cells: HeLa cells mixed with placenta tissue lysate; conditions: 10 μM free compound
Protocol: as §1

[18] = molecular target: PYK2 (Homo sapiens, UniProt Q14289); assay: as above; set-up: capturing and identification of kinases from mixed HeLa placenta lysates; endogenous in cells; host or cells: HeLa cells mixed with placenta tissue lysate; conditions: 10 μM free compound
Protocol: as §1

[19] = molecular target: RSK2 (Homo sapiens, UniProt P51812); assay: as above; set-up: capturing and identification of kinases from mixed HeLa placenta lysates; endogenous in cells; host or cells: HeLa cells mixed with placenta tissue lysate; conditions: 10 μM free compound
Protocol: as §1

[20] = molecular target: SYK (Homo sapiens, UniProt P43405); assay: as above; set-up: capturing and identification of kinases from mixed HeLa placenta lysates; endogenous in cells; host or cells: HeLa cells mixed with placenta tissue lysate; conditions: 10 μM free compound
Protocol: as §1

T2 sequence (Q8N5S9 whole entry): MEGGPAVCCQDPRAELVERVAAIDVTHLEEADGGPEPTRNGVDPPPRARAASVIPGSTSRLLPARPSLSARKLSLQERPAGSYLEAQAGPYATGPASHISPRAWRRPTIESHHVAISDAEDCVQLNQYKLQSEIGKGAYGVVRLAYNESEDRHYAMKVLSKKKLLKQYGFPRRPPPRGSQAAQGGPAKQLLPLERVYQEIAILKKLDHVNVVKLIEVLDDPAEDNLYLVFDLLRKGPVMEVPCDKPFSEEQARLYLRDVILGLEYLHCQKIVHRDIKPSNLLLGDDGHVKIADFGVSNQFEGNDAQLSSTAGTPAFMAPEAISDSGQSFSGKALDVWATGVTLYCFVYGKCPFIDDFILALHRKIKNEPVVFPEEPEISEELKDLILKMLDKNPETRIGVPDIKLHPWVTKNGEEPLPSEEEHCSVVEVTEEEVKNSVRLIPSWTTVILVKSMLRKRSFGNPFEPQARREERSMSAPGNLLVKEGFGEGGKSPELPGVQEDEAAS
RSK2, sequence (P51812 whole entry): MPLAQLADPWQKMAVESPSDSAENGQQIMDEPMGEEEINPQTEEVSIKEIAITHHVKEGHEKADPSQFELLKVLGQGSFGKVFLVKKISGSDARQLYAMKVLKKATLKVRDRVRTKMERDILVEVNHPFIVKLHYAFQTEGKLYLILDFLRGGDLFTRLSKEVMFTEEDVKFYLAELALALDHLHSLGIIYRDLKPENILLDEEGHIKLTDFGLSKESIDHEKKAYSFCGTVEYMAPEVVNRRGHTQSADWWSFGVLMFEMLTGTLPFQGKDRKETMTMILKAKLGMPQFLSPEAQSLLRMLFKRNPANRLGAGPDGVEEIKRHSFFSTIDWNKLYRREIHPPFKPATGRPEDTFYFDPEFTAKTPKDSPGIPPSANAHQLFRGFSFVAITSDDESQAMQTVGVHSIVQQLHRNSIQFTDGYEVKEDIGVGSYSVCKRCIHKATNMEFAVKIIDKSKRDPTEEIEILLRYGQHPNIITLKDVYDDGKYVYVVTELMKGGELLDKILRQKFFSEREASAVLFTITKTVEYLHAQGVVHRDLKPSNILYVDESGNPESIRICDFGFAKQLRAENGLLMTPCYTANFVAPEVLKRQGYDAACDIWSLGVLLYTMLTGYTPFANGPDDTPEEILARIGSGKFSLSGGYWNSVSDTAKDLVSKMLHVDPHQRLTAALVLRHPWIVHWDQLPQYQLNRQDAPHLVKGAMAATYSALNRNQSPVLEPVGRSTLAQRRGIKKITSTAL
MLK4, sequence (Q5TCX8 whole entry): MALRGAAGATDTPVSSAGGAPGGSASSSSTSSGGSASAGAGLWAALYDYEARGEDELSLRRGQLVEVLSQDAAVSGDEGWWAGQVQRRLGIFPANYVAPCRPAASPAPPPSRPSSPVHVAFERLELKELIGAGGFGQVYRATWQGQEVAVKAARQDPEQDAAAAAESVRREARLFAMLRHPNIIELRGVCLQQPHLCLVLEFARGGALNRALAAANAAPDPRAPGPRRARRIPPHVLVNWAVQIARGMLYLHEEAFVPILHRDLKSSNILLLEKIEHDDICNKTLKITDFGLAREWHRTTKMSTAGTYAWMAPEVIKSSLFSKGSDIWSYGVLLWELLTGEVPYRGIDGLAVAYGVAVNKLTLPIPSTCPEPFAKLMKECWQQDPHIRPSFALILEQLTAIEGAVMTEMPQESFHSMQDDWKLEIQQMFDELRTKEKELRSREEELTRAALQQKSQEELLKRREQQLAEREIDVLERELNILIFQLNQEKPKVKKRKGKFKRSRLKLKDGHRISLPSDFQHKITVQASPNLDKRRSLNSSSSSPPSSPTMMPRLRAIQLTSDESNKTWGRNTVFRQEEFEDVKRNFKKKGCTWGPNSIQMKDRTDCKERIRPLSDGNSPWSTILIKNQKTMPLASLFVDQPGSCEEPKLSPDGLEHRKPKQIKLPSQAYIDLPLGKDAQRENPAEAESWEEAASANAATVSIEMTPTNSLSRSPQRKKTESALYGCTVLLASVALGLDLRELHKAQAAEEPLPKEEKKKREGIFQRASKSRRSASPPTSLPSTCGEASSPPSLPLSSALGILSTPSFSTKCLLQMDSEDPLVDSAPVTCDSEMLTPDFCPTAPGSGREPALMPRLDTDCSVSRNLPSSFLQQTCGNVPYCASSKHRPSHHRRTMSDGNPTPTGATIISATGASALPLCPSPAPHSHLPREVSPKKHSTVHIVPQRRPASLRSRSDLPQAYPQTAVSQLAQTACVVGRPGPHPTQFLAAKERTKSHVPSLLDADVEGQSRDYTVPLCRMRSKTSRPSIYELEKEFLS
T12 sequence (Q02763 23-1124): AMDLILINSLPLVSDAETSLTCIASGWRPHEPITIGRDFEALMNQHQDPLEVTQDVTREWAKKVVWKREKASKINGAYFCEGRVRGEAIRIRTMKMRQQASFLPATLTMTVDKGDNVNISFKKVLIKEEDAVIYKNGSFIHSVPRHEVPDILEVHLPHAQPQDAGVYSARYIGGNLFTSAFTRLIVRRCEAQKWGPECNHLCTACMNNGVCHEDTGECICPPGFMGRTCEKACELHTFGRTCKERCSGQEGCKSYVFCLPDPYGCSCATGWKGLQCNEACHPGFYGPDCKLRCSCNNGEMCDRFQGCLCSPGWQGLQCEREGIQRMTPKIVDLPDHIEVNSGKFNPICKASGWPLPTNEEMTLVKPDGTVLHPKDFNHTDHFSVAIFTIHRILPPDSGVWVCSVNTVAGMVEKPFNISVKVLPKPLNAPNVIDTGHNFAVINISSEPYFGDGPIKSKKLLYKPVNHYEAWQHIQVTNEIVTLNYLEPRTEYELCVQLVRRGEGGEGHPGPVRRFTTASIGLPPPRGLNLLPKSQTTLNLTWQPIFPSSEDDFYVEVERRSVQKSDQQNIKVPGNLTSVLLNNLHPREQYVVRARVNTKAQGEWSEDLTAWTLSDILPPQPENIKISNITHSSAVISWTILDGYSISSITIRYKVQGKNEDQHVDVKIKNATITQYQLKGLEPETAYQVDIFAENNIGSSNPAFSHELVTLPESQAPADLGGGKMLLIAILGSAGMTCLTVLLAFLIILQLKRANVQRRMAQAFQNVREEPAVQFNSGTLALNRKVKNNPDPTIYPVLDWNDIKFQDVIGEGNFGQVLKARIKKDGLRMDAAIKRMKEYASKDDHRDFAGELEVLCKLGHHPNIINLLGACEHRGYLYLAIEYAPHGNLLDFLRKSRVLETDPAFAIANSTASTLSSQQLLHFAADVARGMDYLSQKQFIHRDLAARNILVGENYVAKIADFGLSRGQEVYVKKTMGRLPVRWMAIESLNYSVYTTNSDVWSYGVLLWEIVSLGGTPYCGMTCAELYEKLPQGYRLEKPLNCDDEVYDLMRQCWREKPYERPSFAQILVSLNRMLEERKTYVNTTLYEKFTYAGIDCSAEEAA
T4 sequence (P35916 25-1363): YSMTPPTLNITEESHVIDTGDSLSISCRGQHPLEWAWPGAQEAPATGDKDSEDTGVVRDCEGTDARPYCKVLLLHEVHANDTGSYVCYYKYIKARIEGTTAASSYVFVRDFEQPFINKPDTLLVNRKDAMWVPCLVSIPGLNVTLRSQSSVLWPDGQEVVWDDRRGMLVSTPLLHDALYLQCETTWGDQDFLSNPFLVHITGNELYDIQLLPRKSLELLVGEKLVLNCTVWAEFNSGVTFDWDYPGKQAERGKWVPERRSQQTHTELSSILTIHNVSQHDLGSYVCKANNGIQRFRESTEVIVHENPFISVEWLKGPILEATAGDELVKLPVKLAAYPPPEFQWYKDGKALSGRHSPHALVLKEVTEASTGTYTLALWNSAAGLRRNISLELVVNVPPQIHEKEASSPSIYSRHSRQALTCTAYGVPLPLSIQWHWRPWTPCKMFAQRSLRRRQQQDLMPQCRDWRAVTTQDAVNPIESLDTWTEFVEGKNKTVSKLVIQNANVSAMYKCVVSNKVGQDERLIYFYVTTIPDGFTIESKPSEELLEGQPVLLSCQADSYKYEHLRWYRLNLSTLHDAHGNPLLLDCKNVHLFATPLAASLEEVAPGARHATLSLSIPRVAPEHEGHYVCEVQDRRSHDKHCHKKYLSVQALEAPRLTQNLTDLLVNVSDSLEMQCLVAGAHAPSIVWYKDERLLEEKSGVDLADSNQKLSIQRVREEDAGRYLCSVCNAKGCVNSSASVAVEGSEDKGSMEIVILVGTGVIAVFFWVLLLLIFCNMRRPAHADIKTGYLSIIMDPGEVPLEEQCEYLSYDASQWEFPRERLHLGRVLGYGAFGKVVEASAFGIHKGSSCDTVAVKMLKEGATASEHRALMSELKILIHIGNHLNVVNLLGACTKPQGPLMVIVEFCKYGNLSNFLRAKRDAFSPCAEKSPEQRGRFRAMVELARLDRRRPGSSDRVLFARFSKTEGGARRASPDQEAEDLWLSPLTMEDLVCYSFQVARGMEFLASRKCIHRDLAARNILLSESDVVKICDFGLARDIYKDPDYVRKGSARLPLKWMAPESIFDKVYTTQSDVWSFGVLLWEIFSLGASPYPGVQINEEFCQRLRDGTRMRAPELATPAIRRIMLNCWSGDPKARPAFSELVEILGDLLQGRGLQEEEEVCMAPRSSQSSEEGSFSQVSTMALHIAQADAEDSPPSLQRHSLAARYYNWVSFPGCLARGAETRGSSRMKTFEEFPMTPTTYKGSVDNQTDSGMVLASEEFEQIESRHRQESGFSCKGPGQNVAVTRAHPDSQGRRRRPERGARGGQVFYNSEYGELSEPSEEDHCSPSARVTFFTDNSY

## CS(=O)(=O)Nc1ccccc1Nc1nc(Nc2cccc(OCCN)c2)ncc1Cl [CZC31326, N-(2-(2-(3-(2-aminoethoxy)phenylamino)-5-chloropyrimidin-4-ylamino)phenyl)methanesulfonamide]
[1]
  inhibition at 10 µM: 95.2%
[2]
  inhibition at 10 µM: 94.2%
[3]
  inhibition at 10 µM: 93.8%
[4]
  inhibition at 10 µM: 89.3%
[5]
  inhibition at 10 µM: 90%
[6]
  inhibition at 10 µM: 84.3%
[7]
  inhibition at 10 µM: 82.1%
[8]
  inhibition at 10 µM: 92.1%
[9]
  inhibition at 10 µM: 94%
[10]
  inhibition at 10 µM: 90.4%
[11]
  inhibition at 10 µM: 92.2%
[12]
  inhibition at 10 µM: 91.6%
[13]
  inhibition at 10 µM: 94.3%
[14]
  Competition %: 96.1%
[15]
  inhibition at 10 µM: 88.9%
[16]
  inhibition at 10 µM: 94%
[17]
  inhibition at 10 µM: 94.7%
[18]
  inhibition at 10 µM: 92.7%
[19]
  inhibition at 10 µM: 96%
[20]
  Competition %: 93.4%
